Assay results as given in US11427574B2, “Compounds for treating Rac-GTPase mediated disorder” (Children's Medical Center Corporation, priority 2015, dated 2022).

Assays:
[1] = tested on: Rac; experiment: Rac activation pull down assay (PAK beads, Western blot); assay type: cell-based; conditions: Western Blot (FIG. 2a)
Procedure: To determine which of these compounds should be further pursued, a biochemical pull down assay was performed to confirm specific inhibition of Rac activation indicated by disruption of the interaction between Rac and […]. The assay initially required treatment of cells followed by pull down and analysis with Western blot. The cells were first starved in serum free media for 2 hours. They were then re-suspended in serum-containing medium and inhibitors added at desired concentration. Following incubation for the desired length of time, the cells were pelleted and lysed with Magnesium Lysis Buffer (Millipore Mg^2+ lysis/wash buffer). The Rac protein and any bound proteins were then collected with Pak Beads (Millipore Rac/cdc42 Assay Reagent (PAK-1 PBD, agarose). Bound protein was subsequently removed with lysis buffer and subject to Western Blot analysis.
Compound 1 was identified as a lead compound from the above analyses. […] The Western Blot and pull down analyses are also shown for the compound DMSO, and the compound NSC23776, which is a known inhibitor of Rac1 binding and of Rac activation by Rac-specific RhoGEFs.

[2] = tested on: Loucy cells; experiment: Proliferation assay in Loucy leukemia cells; assay type: cell-based; conditions: read-out: IC50, inhibition of proliferation
Procedure: Dose Dependent Inhibition of Proliferation The 100 compounds selected from the initial in silico screen were assayed for inhibition of proliferation in two leukemia cell lines, SEM and P12 by Cell Titer Glo. The cells for the proliferation assay were spun down and re-suspended. The cell suspension was then divided and the compound to be tested added in desired concentrations and subsequently plated. Following an incubation period, the Cell Titer Glo reagent (Promega CellTiter 96® Aqueous Non-Radioactive Cell Proliferation Assay) was added and allowed to incubate. The absorbance is subsequently measured at 490 nm using a plate reader. Each compound was analyzed for its effects on cell proliferation.
The lead compound, i.e. Compound 1, was analyzed for its effect on cell proliferation at various doses on three different leukemia cell lines: SEM, P12, and Loucy. In order to quantitate the percentage inhibition of cell proliferation, Cell Titer Glo analysis was completed as described in Example 2 above.
FIGS. 3a-3c show three graphs illustrating the dose dependent inhibition of proliferation of Compound 1 in SEM, P12, and Loucy cells as measured by MTS assay. […] Compound 1 was further analyzed for its effect on cell apoptosis and cell death using a flow based assay using Annexin V staining.

[3] = tested on: 40 kinases; experiment: Kinase screening, whole panel; assay type: biochemical; conditions: summary of Table 1
Procedure: Compound 1 was tested for its efficacy in inhibiting activities of 40 kinases and binding with 12 GPCRs both as an antagonist and an agonist.

- IC50 [2]: 160 µM
- inhibition of the 40 kinases tested [3]: no significant inhibition
SMILES: CCc1ccc(CN(C)C(=O)CCc2nnc(CCc3c[nH]c4ccccc34)o2)nc1 (racemic) [Compound 1]
- total Rac levels [1]: no significant effect
- Rac activation ([1]; pull down): dose dependent reduction
